Test results reported in paper PMC8311653, “Design, Synthesis, In Vitro and In Vivo Characterization of Selective NKCC1 Inhibitors for the Treatment of Core Symptoms in Down Syndrome” (Journal of Medicinal Chemistry, 2021).

Experiments:
[1] = In vitro metabolic stability in mouse liver microsomes; conditions: tissue homogenate, pH 7.4
In short: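 Compound incubated in mouse liver microsomes in 0.1M Tris-HCl pH 7.4 with 10% DMSO; after pre-incubation NADPH, G6P, G6PDH and MgCl2 added, then 37 °C for 1h, sampled at 0, 5, 15, 30, 60 min.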

[2] = Aqueous kinetic solubility in PBS pH 7.4; assay type: physicochemical; conditions: aqueous kinetic solubility from 10 mM DMSO solution in PBS pH 7.4, target concentration 250 μM (final DMSO 2.5%)
Method: 1. Aqueous kinetic solubility.
30 µL aliquots of 10 mM DMSO stock solution of the test compound were incubated in Phosphate
Buffered Saline (PBS) at pH 7.4 at 25°C for 24h. After centrifugation the dissolved compound in the
supernatant was quantified by LC-MS/MS.
Aqueous kinetic solubility was determined by UV quantification at
215 nm. […]

[3] = target: T1, NKCC1 (Mus musculus, UniProt P55012); assay: Ca2+ influx assay in immature primary neuronal cultures (indirect measure of NKCC1 inhibition); assay type: cell-based
T1 construct: primary neuronal cultures of dissociated hippocampal neurons were prepared from E18 C57BL/6J mice; endogenous in cells; host or cells: primary hippocampal neurons from E18 C57BL/6J mice, 3 DIV
T1 sequence (P55012 1-1205): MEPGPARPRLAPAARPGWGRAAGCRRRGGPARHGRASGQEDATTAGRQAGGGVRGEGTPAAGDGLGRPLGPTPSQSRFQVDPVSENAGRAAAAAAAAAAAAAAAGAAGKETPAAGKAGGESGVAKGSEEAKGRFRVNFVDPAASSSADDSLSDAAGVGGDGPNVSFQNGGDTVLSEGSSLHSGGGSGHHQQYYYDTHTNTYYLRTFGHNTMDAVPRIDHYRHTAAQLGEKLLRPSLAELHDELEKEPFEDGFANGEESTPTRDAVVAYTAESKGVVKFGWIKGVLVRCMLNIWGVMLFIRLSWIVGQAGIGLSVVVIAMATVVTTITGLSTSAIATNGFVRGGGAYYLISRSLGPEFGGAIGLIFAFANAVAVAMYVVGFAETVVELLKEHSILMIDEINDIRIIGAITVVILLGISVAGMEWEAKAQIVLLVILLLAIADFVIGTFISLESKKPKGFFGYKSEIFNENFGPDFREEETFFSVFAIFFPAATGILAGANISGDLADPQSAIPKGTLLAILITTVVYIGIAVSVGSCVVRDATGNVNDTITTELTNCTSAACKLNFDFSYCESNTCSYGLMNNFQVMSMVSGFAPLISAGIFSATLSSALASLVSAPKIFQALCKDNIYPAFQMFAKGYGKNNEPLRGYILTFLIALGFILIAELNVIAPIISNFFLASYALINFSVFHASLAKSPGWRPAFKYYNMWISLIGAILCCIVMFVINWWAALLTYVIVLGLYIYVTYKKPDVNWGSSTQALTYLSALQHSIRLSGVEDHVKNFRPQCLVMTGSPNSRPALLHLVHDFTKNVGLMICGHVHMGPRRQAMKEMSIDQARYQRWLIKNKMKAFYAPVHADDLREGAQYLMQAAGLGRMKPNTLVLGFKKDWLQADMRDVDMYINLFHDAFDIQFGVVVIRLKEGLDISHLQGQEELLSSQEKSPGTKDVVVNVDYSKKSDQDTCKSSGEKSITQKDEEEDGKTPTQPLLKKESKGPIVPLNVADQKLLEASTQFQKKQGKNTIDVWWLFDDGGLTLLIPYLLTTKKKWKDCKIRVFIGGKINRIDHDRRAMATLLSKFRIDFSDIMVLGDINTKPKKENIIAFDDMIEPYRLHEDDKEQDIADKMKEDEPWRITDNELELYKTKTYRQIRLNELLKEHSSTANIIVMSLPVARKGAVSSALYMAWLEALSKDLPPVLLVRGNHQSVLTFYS
Method: To perform the Ca^2+-influx assay, primary neuronal cultures of dissociated hippocampal neurons were prepared from E18 C57BL/6J mice (Charles River) as previously described[56] and plated in 96-well black-walled, clear-bottomed plates coated with poly-L-lysine (Sigma; 0.1 mg/mL in 100 mM borate buffer, pH 8.5) at a density of 30,000 cells per well. Neurons were maintained in neurobasal medium supplemented with 2% B-27 supplement, 0.5 mM glutamine, 50 U/mL of penicillin, and 50 μg/mL of streptomycin (all from Gibco). The cells were incubated at 37 °C and 5% CO2 until DIV 3 for the Ca^2+ influx assay.
At 3 DIVs, neurons were loaded with 2.5 μM of the Ca^2+-sensitive day Fluo4-AM (Invitrogen) in extracellular solution (145 mM NaCl, 5 mM KCl, 10 mM HEPES, 5.55 mM glucose, 1 mM MgCl2, and 2 mM CaCl2, pH 7.4). After 15 min, cells were washed twice with extracellular solutions and treated with bumetanide (as a positive control), DMSO (as a negative control), or each of our compounds at 10 μM or 100 μM, in extracellular solution for 15 min. Plates were then loaded onto a Spark (Tecan) multiplate reader equipped with an automatic liquid injector system, and Fluo4 fluorescence was recorded with excitation at 485 nm and emission at 535 nm. For each well, fluorescence was first recorded for 20 s of the baseline and for 20 s after delivery of GABA (100 μM). To evaluate neuronal viability, fluorescence was recorded for an additional 20 s after delivery of a depolarizing KCl stimulus (90 mM final concentration in wells). To represent the fluorescent traces in time, we normalized the fluorescence value for each time point to the average of the fluorescence value for the first 20 s of the baseline (ΔF/F0). To quantify the average effects as represented by the bar plots, we measured the maximum peak increase in ΔF/F0 fluorescence upon GABA application normalized over the maximum peak increase in ΔF/F0 fluorescence upon KCl application. We then presented in the figures all the data as a percentage of the fluorescence increase versus the value of the control DMSO.

[4] = 100 μM, cultured neurons, 3 DIV
[5] = phosphate buffered saline (PBS)

Q: Which results are given for `CCCCNc1cc(C(=O)O)cc(S(N)(=O)=O)c1Oc1ccccc1` [bumetanide, reference compound]?
A: half-life at 5 μM [1]: > 1 h; solubility at 24 h [2]: > 250 µM; inhibition at 10 µM ([3]; cultured neurons, 3 DIV): 51.9 ± 2.3%; inhibition at 100 µM [3, 4]: 54.7 ± 2.5%

Q: For `CN(C)S(=O)(=O)c1cc(C(=O)O)c(O)cc1NCCCCCCCC(F)(F)F` [Compound 40, 5-(N,N-Dimethylsulfamoyl)-2-hydroxy-4-((8,8,8-trifluorooctyl)amino)benzoic Acid], which half-life at 5 μM [1] is on record?
A: The half-life at 5 μM was greater than 1 h.

Q: And the solubility at 24 h [2, 5]?
A: The solubility at 24 h was greater than 250 µM.

Q: What about the inhibition at 10 µM ([3]; cultured neurons, 3 DIV) of the same compound?
A: The inhibition at 10 µM was 13.9 ± 2%.

Q: And the “Inhibition 100 μM Ca2+ influx (%)” value [3, 4]?
A: The value was 51.9 ± 4.0%.

Q: What about the inhibition at 100 µM [3, 4] of the same compound?
A: The inhibition at 100 µM was 51.8 ± 4%.

Q: What about the “inhibition of NKCC1 in the Ca2+ influx assay (dose dependence)” value ([3]; neuronal cultures, Figures 4A and S2) of the same compound?
A: The value was “significant dose-dependent inhibition”.

Q: What does the source list for `CN(C)S(=O)(=O)c1cc(C(=O)O)ccc1NCCCCCCCC(F)(F)F` [Compound 1, 3-(-N,N-Dimethylsulfamoyl)-4-(8,8,8-trifluorooctylamino)benzoic Acid]?
A: half-life at 5 μM [1]: > 1 h; solubility at 24 h [2, 5]: > 250 µM; inhibition at 10 µM ([3]; cultured neurons, 3 DIV): 45.7 ± 4.3%; inhibition at 100 µM [3, 4]: 92.8 ± 1.9%
